Assay results from the NIST ThermoML archive (doi:10.1021/je700406p).

Assay: wn = mass fraction of the nth substance listed
Settings: Liquid, Vibrating tube method

CC(C)(N)CO [2-amino-2-methylpropan-1-ol] + O
Settings | mass density [kg/m3]
323.09 K, 19985 kPa, w1 = 0.4976 | 978
323.09 K, 20939 kPa, w1 = 0.4976 | 978.4
323.1 K, 513 kPa, w1 = 0.1997 | 984.2
323.1 K, 1002 kPa, w1 = 0.4002 | 978
323.1 K, 1007 kPa, w1 = 0.1997 | 984.4
323.1 K, 2005 kPa, w1 = 0.1997 | 984.8
323.1 K, 2023 kPa, w1 = 0.4002 | 978.4
323.1 K, 3001 kPa, w1 = 0.4002 | 978.9
323.1 K, 3005 kPa, w1 = 0.1997 | 985.1
323.1 K, 4001 kPa, w1 = 0.1997 | 985.5
323.1 K, 4011 kPa, w1 = 0.4002 | 979.2
323.1 K, 5000 kPa, w1 = 0.1997 | 986
323.1 K, 5000 kPa, w1 = 0.4002 | 979.7
323.1 K, 6002 kPa, w1 = 0.4002 | 980
323.1 K, 6003 kPa, w1 = 0.1997 | 986.3
323.1 K, 6999 kPa, w1 = 0.4002 | 980.4
323.1 K, 7003 kPa, w1 = 0.1997 | 986.8
323.1 K, 7990 kPa, w1 = 0.4002 | 980.8
323.1 K, 8001 kPa, w1 = 0.1997 | 987.1
323.1 K, 9002 kPa, w1 = 0.4002 | 981.2
323.1 K, 9013 kPa, w1 = 0.1997 | 987.5
323.1 K, 9990 kPa, w1 = 0.4002 | 981.6
323.1 K, 10002 kPa, w1 = 0.1997 | 987.9
323.1 K, 10992 kPa, w1 = 0.4002 | 982
323.1 K, 11001 kPa, w1 = 0.1997 | 988.3
323.1 K, 11996 kPa, w1 = 0.4002 | 982.5
323.1 K, 12004 kPa, w1 = 0.1997 | 988.7
323.1 K, 12990 kPa, w1 = 0.4002 | 982.8
323.1 K, 13009 kPa, w1 = 0.1997 | 989
323.1 K, 13994 kPa, w1 = 0.4002 | 983.2
323.1 K, 13999 kPa, w1 = 0.1997 | 989.4
323.1 K, 14992 kPa, w1 = 0.4002 | 983.6
323.1 K, 15001 kPa, w1 = 0.1997 | 989.8
323.1 K, 15995 kPa, w1 = 0.4002 | 984
323.1 K, 16002 kPa, w1 = 0.1997 | 990.2
323.1 K, 16986 kPa, w1 = 0.4002 | 984.4
323.1 K, 17001 kPa, w1 = 0.1997 | 990.6
323.1 K, 17993 kPa, w1 = 0.4002 | 984.8
323.1 K, 18004 kPa, w1 = 0.1997 | 991
323.1 K, 18995 kPa, w1 = 0.4002 | 985.1
323.1 K, 19000 kPa, w1 = 0.1997 | 991.4
323.1 K, 19992 kPa, w1 = 0.4002 | 985.5
323.1 K, 20030 kPa, w1 = 0.1997 | 991.7
323.1 K, 21005 kPa, w1 = 0.1997 | 992.1
323.1 K, 21297 kPa, w1 = 0.4002 | 986
323.1 K, 22004 kPa, w1 = 0.1997 | 992.5
323.1 K, 22998 kPa, w1 = 0.1997 | 992.9
323.1 K, 24004 kPa, w1 = 0.1997 | 993.3
332.01 K, 1005 kPa, w1 = 0.2821 | 976.1
332.01 K, 2004 kPa, w1 = 0.2821 | 976.5
332.01 K, 2997 kPa, w1 = 0.2821 | 977
332.01 K, 4002 kPa, w1 = 0.2821 | 977.4
332.01 K, 5002 kPa, w1 = 0.2821 | 977.8
332.01 K, 5997 kPa, w1 = 0.2821 | 978.2
332.01 K, 6999 kPa, w1 = 0.2821 | 978.6
332.01 K, 7996 kPa, w1 = 0.2821 | 979
332.01 K, 8992 kPa, w1 = 0.2821 | 979.4
332.01 K, 9994 kPa, w1 = 0.2821 | 979.8
332.01 K, 11040 kPa, w1 = 0.2821 | 980.2
332.01 K, 11992 kPa, w1 = 0.2821 | 980.6
332.01 K, 12990 kPa, w1 = 0.2821 | 981
332.01 K, 13989 kPa, w1 = 0.2821 | 981.4
332.01 K, 14989 kPa, w1 = 0.2821 | 981.8
332.01 K, 15990 kPa, w1 = 0.2821 | 982.2
332.01 K, 17000 kPa, w1 = 0.2821 | 982.5
332.01 K, 17987 kPa, w1 = 0.2821 | 982.9
332.01 K, 18991 kPa, w1 = 0.2821 | 983.3
332.01 K, 19984 kPa, w1 = 0.2821 | 983.7
332.01 K, 20986 kPa, w1 = 0.2821 | 984.1
332.99 K, 503 kPa, w1 = 0.1997 | 978.2
332.99 K, 1000 kPa, w1 = 0.1997 | 978.5
332.99 K, 2000 kPa, w1 = 0.1997 | 978.7
332.99 K, 3000 kPa, w1 = 0.1997 | 979.2
332.99 K, 4000 kPa, w1 = 0.1997 | 979.6
332.99 K, 5001 kPa, w1 = 0.1997 | 979.9
332.99 K, 6000 kPa, w1 = 0.1997 | 980.4
332.99 K, 7001 kPa, w1 = 0.1997 | 980.8
332.99 K, 8001 kPa, w1 = 0.1997 | 981.2
332.99 K, 9009 kPa, w1 = 0.1997 | 981.5
332.99 K, 10003 kPa, w1 = 0.1997 | 982
332.99 K, 11001 kPa, w1 = 0.1997 | 982.3
332.99 K, 12000 kPa, w1 = 0.1997 | 982.8
332.99 K, 13000 kPa, w1 = 0.1997 | 983.2
332.99 K, 14000 kPa, w1 = 0.1997 | 983.6
332.99 K, 14999 kPa, w1 = 0.1997 | 984
332.99 K, 16001 kPa, w1 = 0.1997 | 984.3
332.99 K, 17001 kPa, w1 = 0.1997 | 984.8
332.99 K, 18006 kPa, w1 = 0.1997 | 985.2
332.99 K, 19001 kPa, w1 = 0.1997 | 985.5
332.99 K, 20029 kPa, w1 = 0.1997 | 985.9
332.99 K, 21005 kPa, w1 = 0.1997 | 986.3
332.99 K, 22004 kPa, w1 = 0.1997 | 986.7
332.99 K, 23000 kPa, w1 = 0.1997 | 987
332.99 K, 24008 kPa, w1 = 0.1997 | 987.4
333.04 K, 1029 kPa, w1 = 0.4976 | 961.9
333.04 K, 1994 kPa, w1 = 0.4976 | 962.4
333.04 K, 3005 kPa, w1 = 0.4976 | 962.8
333.04 K, 4012 kPa, w1 = 0.4976 | 963.3
333.04 K, 4995 kPa, w1 = 0.4976 | 963.7
333.04 K, 5995 kPa, w1 = 0.4976 | 964.1
333.04 K, 7056 kPa, w1 = 0.4976 | 964.6
333.04 K, 7994 kPa, w1 = 0.4976 | 965
333.04 K, 8994 kPa, w1 = 0.4976 | 965.5
333.04 K, 9997 kPa, w1 = 0.4976 | 965.9
333.04 K, 10996 kPa, w1 = 0.4976 | 966.3
333.04 K, 11991 kPa, w1 = 0.4976 | 966.7
333.04 K, 12988 kPa, w1 = 0.4976 | 967.2
333.04 K, 13992 kPa, w1 = 0.4976 | 967.6
333.04 K, 14999 kPa, w1 = 0.4976 | 968
333.04 K, 15982 kPa, w1 = 0.4976 | 968.4
333.04 K, 16996 kPa, w1 = 0.4976 | 968.9
333.04 K, 17988 kPa, w1 = 0.4976 | 969.3
333.04 K, 18986 kPa, w1 = 0.4976 | 969.7
333.04 K, 19987 kPa, w1 = 0.4976 | 970.1
333.04 K, 21093 kPa, w1 = 0.4976 | 970.6
333.05 K, 1028 kPa, w1 = 0.4002 | 970.4
333.05 K, 1998 kPa, w1 = 0.4002 | 970.8
333.05 K, 3001 kPa, w1 = 0.4002 | 971.2
333.05 K, 4010 kPa, w1 = 0.4002 | 971.6
333.05 K, 5003 kPa, w1 = 0.4002 | 972.1
333.05 K, 5997 kPa, w1 = 0.4002 | 972.5
333.05 K, 7000 kPa, w1 = 0.4002 | 972.9
333.05 K, 8010 kPa, w1 = 0.4002 | 973.3
333.05 K, 8996 kPa, w1 = 0.4002 | 973.7
333.05 K, 9998 kPa, w1 = 0.4002 | 974.2
333.05 K, 10998 kPa, w1 = 0.4002 | 974.6
333.05 K, 12011 kPa, w1 = 0.4002 | 975
333.05 K, 13000 kPa, w1 = 0.4002 | 975.4
333.05 K, 13987 kPa, w1 = 0.4002 | 975.8
